In the NIST ThermoML archive (doi:10.1021/je9005344):
Numbers after ± are expanded uncertainties.

Conditions: 298.15 K, 101.3 kPa, Liquid; for viscosity: Capillary tube (Ostwald / Ubbelohde) method; for speed of sound: Pulse-echo method; for mass density: Vibrating tube method

Row | viscosity [mPa·s] | speed of sound [m/s] | mass density [kg/m3] | Structure (SMILES)
1 | 1.512 ± 0.013 | 1343.5 ± 1.2 | 960.978 ± 0.23 | COCCO [2-methoxyethan-1-ol]
2 | 11.19 ± 0.077 | 1379.9 ± 1.2 | 826.47 ± 0.23 | CCCCCCCCCCO [decan-1-ol]
3 | 4.439 ± 0.033 | 1303.2 ± 1.2 | 815.265 ± 0.23 | CCCCCCO [hexan-1-ol]
4 | 7.143 ± 0.051 | 1347.6 ± 1.2 | 821.794 ± 0.23 | CCCCCCCCO [octan-1-ol]
